Test results taken from patent US11020395B2, “Cycloalkyl substituted triazole compounds as agonists of the APJ receptor” (AMGEN INC., priority 2016, dated 2021).

Molecular target: human APJ receptor (Homo sapiens (Human), UniProt P35414)
Test: [35S]GTPγS binding assay on membranes from CHO cells stably expressing human APJ receptor
Type: biochemical
Details: [35S]GTPγS SPA, read-out: Activity hAPJ SPA EC50 IP
Summary of the method: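 Membranes from CHO cells stably expressing FLAG-tagged human APJ were incubated with [35S]GTPγS in buffer with optimized GDP, MgCl2 and NaCl, 90 min at RT. EC50 values derived by non-linear regression, averaged over several independent experiments.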

human APJ receptor, sequence (P35414 whole entry): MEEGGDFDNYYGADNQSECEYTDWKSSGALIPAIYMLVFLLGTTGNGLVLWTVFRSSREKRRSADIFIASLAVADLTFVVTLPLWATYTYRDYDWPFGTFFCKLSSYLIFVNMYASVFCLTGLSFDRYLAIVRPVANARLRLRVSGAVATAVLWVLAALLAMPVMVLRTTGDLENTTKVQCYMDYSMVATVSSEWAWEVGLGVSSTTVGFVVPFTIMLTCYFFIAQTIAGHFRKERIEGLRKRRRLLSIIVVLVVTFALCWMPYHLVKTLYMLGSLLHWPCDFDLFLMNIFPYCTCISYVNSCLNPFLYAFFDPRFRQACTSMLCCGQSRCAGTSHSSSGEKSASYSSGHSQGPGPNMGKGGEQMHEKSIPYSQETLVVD

Compound `COc1cccc(OC)c1-n1c(NS(=O)(=O)[C@@H](C)[C@H](OC)c2ncc(Cl)cn2)nnc1[C@H]1C[C@@H](C#N)C1` (single isomer, unassigned) [Example 122.0, (1R,2S)-1-(5-chloro-2-pyrimidinyl)-N-(5-(cis-3-cyanocyclobutyl)-4-(2,6-dimethoxyphenyl)-4H-1,2,4-triazol-3-yl)-1-methoxy-2-propanesulfonamide or (1R,2S)-1-(5-chloro-2-pyrimidinyl)-N-(5-(trans-3-cyanocyclobutyl)-4-(2,6-dimethoxyphenyl)-4H-1,2,4-triazol-3-yl)-1-methoxy-2-propanesulfonamide] has an EC50 of 28 nM.
`COc1cccc(OC)c1-n1c(NS(=O)(=O)[C@@H](C)[C@H](OC)c2ncc(Cl)cn2)nnc1C1CCC1C#N` (single isomer, unassigned) [Example 170.0, (1R,2S)-1-(5-chloropyrimidin-2-yl)-N-(5-((1R,2R)-2-cyanocyclobutyl)-4-(2,6-dimethoxyphenyl)-4H-1,2,4-triazol-3-yl)-1-methoxypropane-2-sulfonamide or (1R,2S)-1-(5-chloropyrimidin-2-yl)-N-(5-((1R,2R)-2-cyanocyclobutyl)-4-(2,6-dimethoxyphenyl)-4H-1,2,4-triazol-3-yl)-1-methoxypropane-2-sulfonamide] gave an EC50 of 18 nM.
In the case of `COc1ncnc(OC)c1-n1c(NS(=O)(=O)[C@@H](C)[C@@H](OC(C)C)c2ncc(Cl)cn2)nnc1[C@@H]1CC[C@@H]1C(F)F` (single isomer, unassigned) [Example 167.0, (1S,2S)-1-(5-chloropyrimidin-2-yl)-N-(5-((1R,2S)-2-(difluoromethyl)cyclobutyl)-4-(4,6-dimethoxypyrimidin-5-yl)-4H-1,2,4-triazol-3-yl)-1-isopropoxypropane-2-sulfonamide or (1S,2S)-1-(5-chloropyrimidin-2-yl)-N-(5-((1S,2R)-2-(difluoromethyl)cyclobutyl)-4-(2,6-dimethoxypyrimidin-5-yl)-4H-1,2,4-triazol-3-yl)-1-isopropoxypropane-2-sulfonamide], the EC50 is reported as 13 nM.
“(1R,2S)-1-(5-chloropyrimidin-2-yl)-N-(4-(4,6-dimethoxypyrimidin-5-yl)-5-((R)-spiro[2.2]pentan-1-yl)-4H-1,2,4-triazol-3-yl)-1-methoxypropane-2-sulfonamide or (1R,2S)-1-(5-chloropyrimidin-2-yl)-N-(4-(4,6-dimethoxypyrimidin-5-yl)-5-((S)-spiro[2.2]pentan-1-yl)-4H-1,2,4-triazol-3-yl)-1-methoxypropane-2-sulfonamide [Example 106.0]” showed an EC50 of 19 nM.
For `COc1cccc(OC)c1-n1c(NS(=O)(=O)[C@@H](C)[C@H](OC)c2ncc(Cl)cn2)nnc1[C@H]1C[C@@H](CO)C1` (single isomer, unassigned) [Example 124.0, (1R,2S)-1-(5-chloro-2-pyrimidinyl)-N-(4-(2,6-dimethoxyphenyl)-5-(cis-3-(hydroxymethyl)cyclobutyl)-4H-1,2,4-triazol-3-yl)-1-methoxy-2-propanesulfonamide or (1R,2S)-1-(5-chloro-2-pyrimidinyl)-N-(4-(2,6-dimethoxyphenyl)-5-(trans-3-(hydroxymethyl)cyclobutyl)-4H-1,2,4-triazol-3-yl)-1-methoxy-2-propanesulfonamide], the EC50 was 49 nM.
`COc1ncnc(OC)c1-n1c(NS(=O)(=O)[C@@H](C)[C@H](OC)c2ncc(Cl)cn2)nnc1C1CC(Cl)(Cl)C1` [Example 203.0, (1R,2S)-1-(5-chloropyrimidin-2-yl)-N-(5-(3,3-dichlorocyclobutyl)-4-(4,6-dimethoxypyrimidin-5-yl)-4H-1,2,4-triazol-3-yl)-1-methoxypropane-2-sulfonamide] was tested, and the EC50 was 10 nM.
